Key:
MMP-2 = target: T1, MMP-2 (Mus musculus, UniProt P33434); test: MMP-2 activity after DC injury and AZD1236 administration; format: in vivo; conditions: oral and intrathecal, effective dose
T1 construct: from tissue

IL-1β, TNF-α and IL-6 = test: qRT-PCR of proinflammatory pain markers after DC injury in mice; format: in vivo, mouse; conditions: for injury-induced rise of proinflammatory pain markers IL-1β, TNF-α and IL-6: 3d after DC injury
Description: For oral delivery of AZD1236, n=6 adult male C57BL6 mice/group (Charles River, Margate, UK) were randomly allocated to either: (1), Sham (control; partial laminectomy but no DC crush injury); (2), DC crush injury+vehicle (partial laminectomy followed by DC crush injury and injection of vehicle); (3), DC crush injury+100 mg/kg AZD1236; (4), DC crush injury+200 mg/kg AZD1236; and (5), DC crush injury+300 mg/kg AZD1236. For intrathecal (it) delivery of AZD1236, adult male C57BL6 mice (25-30 g) (Charles River, Margate, UK) were randomly allocated to either: (1), Sham (control; partial laminectomy but no DC crush injury); (2), DC crush injury+vehicle (partial laminectomy followed by DC crush injury and injection of vehicle); (3), DC crush injury+2.5 mg/kg AZD1236; (4), DC crush injury+5 mg/kg AZD1236; and (5), DC crush injury+10 mg/kg AZD1236. For intrathecal delivery an indwelling atlanto-occipital intrathecal catheter was inserted into the intrathecal space, as described previously (F. A. Oladosu, B. P. Ciszek, S. C. O'Buckley, A. G. Nackley, Novel intrathecal and subcutaneous catheter delivery systems in the mouse. J Neurosci Methods 264, 119-128 (2016)). Briefly, with mice in the sternal recumbency a small incision was made at the nape of the neck followed by detachment of the muscles on either side of the external occipital crest to expose the A-O membrane. The membrane was incised and a 6 cm Alzet mouse intrathecal catheter (Alzet, Cupertino, Calif., USA) and polyurethane segments were gently guided 2.5 cm into the intrathecal space. […]
DC crush injury was administered bilaterally at the T8 vertebral level as described previously (S. Surey, M. Berry, A. Logan, R. Bicknell, Z. Ahmed, Differential cavitation, angiogenesis and wound-healing responses in injured mouse and rat spinal cords. Neuroscience 275, 62-80 (2014); M. L. Read, S. Mir, R. Spice, R. J. Seabright, E. L. Suggate, Z. Ahmed, M. Berry, A. Logan, Profiling RNA interference (RNAi)-mediated toxicity in neural cultures for effective short interfering RNA design. J Gene Med 11, 523-534 (2009)). […]

MMP-9 = target: T2, MMP-9 (Rattus norvegicus, UniProt P50282); test: MMP-9 activity after DC injury in rats; format: in vivo; conditions: oral
T2 construct: from tissue; host or cells: Sprague-Dawley rat spinal cord lesion site
Description: (§1) The efficacy of oral AZD3342 in the DC injury model in adult Sprague-Dawley rat was also assessed. Animals were divided into 6 groups: (1), Sham (control); (2), DC crush injury+Vehicle; (3), DC crush injury+15 mg/kg AZD3342; (4), DC crush injury+75 mg/kg […]; (5), DC crush injury+375 mg/kg AZD3342; and (6), DC crush injury+Melatonin. Animals were dosed twice daily with oral AZD3342 or vehicle with the experimenters masked to the treatment conditions. These experiments were performed with n=6 rats/group and repeated on 2-3 independent occasions (total n=12-18 rats/group/test).
The lesion site+3 mm either side for mouse (DC and CC SCI) and lesion site+5 mm either side for rat was dissected (n=6 mice/rats/group, 2 independent repeats, total n=12 mice/rats/group) and rapidly frozen in liquid N2 and stored at −80° C. until required. The enzymatic activity of MMP-9 and MMP-12 was determined in 96-well plates using the SensoLyte 520 MMP-9 and MMP-12 fluorimetric assay kit, according to the manufacturer's instructions (AnaSpec, Fremont, Calif., USA). Fluorescence intensity was measured using a Synergy H1 microplate reader (BioTek UK, Swindon, UK) at Ex/Em=490/520 nm.

[1] = tested on: rats with DC crush injury; test: Ladder crossing (locomotor function) in rat DC model; format: in vivo; conditions: over 6 weeks
Description: as §1
Functional testing after DC lesion and treatment was carried out as described previously (N. D. Fagoe, C. L. Attwell, R. Eggers, L. Tuinenbreijer, D. Kouwenhoven, J. Verhaagen, M. R. Mason, Evaluation of Five Tests for Sensitivity to Functional Deficits following Cervical or Thoracic Dorsal Column Transection in the Rat. PLoS One 11, e0150141 (2016)). […]
Horizontal ladder test: This tests the animals locomotor function and is performed on a 0.9-meter-long horizontal ladder with a diameter of 15.5 cm and randomly adjusted rungs with variable gaps of 3.5-5.0 cm. Animals were assessed traversing the ladder and the left and right rear paw slips were recorded along with the total number of steps and the mean error rate as: the number of slips/total number of steps.

T1 sequence (P33434 110-662): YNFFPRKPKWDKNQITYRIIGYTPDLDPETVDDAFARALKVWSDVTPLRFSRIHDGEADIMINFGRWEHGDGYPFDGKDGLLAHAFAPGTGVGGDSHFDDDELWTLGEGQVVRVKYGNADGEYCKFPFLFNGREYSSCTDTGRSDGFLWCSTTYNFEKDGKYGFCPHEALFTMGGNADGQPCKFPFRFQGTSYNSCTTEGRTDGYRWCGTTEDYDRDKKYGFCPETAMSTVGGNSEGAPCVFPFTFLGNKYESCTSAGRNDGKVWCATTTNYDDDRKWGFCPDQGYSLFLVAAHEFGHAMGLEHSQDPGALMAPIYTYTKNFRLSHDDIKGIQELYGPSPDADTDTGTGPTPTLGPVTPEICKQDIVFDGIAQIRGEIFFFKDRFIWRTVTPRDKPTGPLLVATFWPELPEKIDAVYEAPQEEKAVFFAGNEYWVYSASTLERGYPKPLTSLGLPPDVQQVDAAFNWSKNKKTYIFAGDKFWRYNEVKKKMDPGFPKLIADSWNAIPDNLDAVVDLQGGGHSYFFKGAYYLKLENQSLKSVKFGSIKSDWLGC
T2 sequence (P50282 108-708): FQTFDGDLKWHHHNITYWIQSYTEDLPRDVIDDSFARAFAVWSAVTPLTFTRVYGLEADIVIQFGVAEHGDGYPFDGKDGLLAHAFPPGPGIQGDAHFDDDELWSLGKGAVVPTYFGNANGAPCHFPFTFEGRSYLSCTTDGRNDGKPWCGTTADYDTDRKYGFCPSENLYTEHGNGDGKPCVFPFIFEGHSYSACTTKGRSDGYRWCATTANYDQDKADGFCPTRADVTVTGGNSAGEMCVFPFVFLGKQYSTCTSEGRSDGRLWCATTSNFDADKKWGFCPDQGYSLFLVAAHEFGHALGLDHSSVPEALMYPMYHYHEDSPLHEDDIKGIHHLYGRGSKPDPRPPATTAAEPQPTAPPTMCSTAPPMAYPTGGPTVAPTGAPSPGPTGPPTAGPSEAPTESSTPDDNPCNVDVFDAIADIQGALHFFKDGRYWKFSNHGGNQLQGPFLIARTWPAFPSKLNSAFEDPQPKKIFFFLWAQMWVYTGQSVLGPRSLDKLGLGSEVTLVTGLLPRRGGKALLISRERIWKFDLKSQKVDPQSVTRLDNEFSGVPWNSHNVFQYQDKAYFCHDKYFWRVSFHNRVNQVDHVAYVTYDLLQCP

Compound | DC injury-induced rise in MMP-2 activity (MMP-2) | injury-induced rise of proinflammatory pain markers IL-1β, TNF-α and IL-6 (IL-1β, TNF-α and IL-6; intrathecal, 5 mg/kg) | proinflammatory cytokines, 24-h delayed treatment (IL-1β, TNF-α and IL-6; optimal doses, 24 h delay vs immediate) | injury-induced rise of proinflammatory pain markers IL-1β, TNF-α and IL-6 (IL-1β, TNF-α and IL-6; oral, 200 mg/kg) | MMP-9 activity (MMP-9) | locomotor function (ladder crossing) [1]
C[C@]1(CS(=O)(=O)N2CC=C(C#Cc3cnc(C4CC4)nc3)CC2)NC(=O)NC1=O [AZD1236] | no difference | reduced them to sham-treated levels | equally as effective as immediate delivery | reduced them to sham-treated levels | – | –
C[C@]1(CS(=O)(=O)N2CCC(Oc3ccc(Cl)cn3)CC2)NC(=O)NC1=O [AZD3342, (5S)-5-[4-(5-chloro-pyridin-2-yloxy)-piperidine-1-sulfonylmethyl]-5-methylimidazolidine-2,4-dione] | – | – | – | – | significantly suppresses | significantly improved
